Series [1] concerns NASH in the general population. The settings on record: cited from earlier work.
In series [2] the test system is patients with HIV-associated NAFLD. The settings on record: Ajmera et al., Hepatology 2019; cited from earlier work.
Series [3] concerns patients with primary NAFLD. Conditions: cited from earlier work.
Series [4] relates to HIV-infected subjects with NAFL/NASH. More on the design: species or system human. The settings on record: in vivo. The method, then:
The study consisted of a 12-month, double-blind treatment phase during which participants were randomized in a 1:1 ratio receive to tesamorelin 2 mg daily or identical placebo, followed by a 6-month open label phase during which all participants receive tesamorelin. The pre-specified primary analysis, comparing changes over twelve months in tesamorelin vs. placebo treatment, is reported here. Randomization was stratified by site (NIH and MGH) and vitamin E use, defined as consistent use of ≥400 international units daily. The randomization list was prepared by the study statistician using a permuted block algorithm within each stratum with randomly varying block sizes. […] IGF-1 Z-scores were monitored throughout the study by an independent endocrinologist at MGH otherwise unaffiliated with the study. […]
Laboratory analyses were conducted using standard methodologies. Clinical labs were measured at the NIH Clinical Laboratory and, for MGH, at LabCorp and Quest. IGF-1 was measured centrally at Quest Laboratories. C-reactive protein was measured using electrochemiluminescense (Meso Scale Discovery, Rockville, MD), and adiponectin was measured using ELISA (R&D Systems, Minneapolis, MN).
Per the pre-specified analysis plan, change in HFF was assessed by random intercept mixed effects modeling using restricted maximum likelihood to assess the effect estimate for the time×randomization interaction. […]

The test system is the same in series [5]. More on the design: species or system human. The settings on record: in vivo. The method, then: Participants at MGH also underwent a euglycemic hyperinsulinemic clamp procedure to assess insulin sensitivity. After a 14-hour overnight fast, a low-dose (insulin 20 mU/m^2/min) clamp for 2 hours was followed by a high-dose (insulin 80 mU/m^2/min) clamp for 2 hours as previously described (Braun L R, et al. Effects of Pitavastatin on Insulin Sensitivity and Liver Fat: A Randomized Clinical Trial. J Clin Endocrinol Metab 2018; 103:4176-86). Insulin stimulated glucose disposal (M) were calculated during the last 20 minutes of low-dose and high-dose clamp using the DeFronzo method (DeFronzo R A, Tobin J D, Andres R. Am J Physiol 1979; 237:E214-23) as the primary indices of hepatic and whole-body insulin sensitivity, respectively.
The source holds these as a separate data set.

For series [6] the test system is unchanged. The settings on record: in vivo.

Regarding Vitamin E, the “histological features of NASH” value in series [1] was “improve”.
For the molecule `CCCCCCCCCCCCCCCCCCCC(=O)N[C@H]1CC[C@@]2(C)[C@@H](C1)C[C@@H](O)[C@@H]1[C@@H]2C[C@H](O)[C@]2(C)[C@@H]([C@H](C)CCC(=O)O)CC[C@@H]12` [aramchol], in series [2], the “effect in patients with HIV-associated NAFLD” value was “no significant effect”. Besides, the hepatic-fat content result in series [3] is recorded as “reduce”.
In the case of `CC/C=C/CC(=O)N[C@@H](Cc1ccc(O)cc1)C(=O)N[C@@H](C)C(=O)N[C@@H](CC(=O)O)C(=O)N[C@@H](C)C(=O)N[C@H](C(=O)N[C@@H](Cc1ccccc1)C(=O)N[C@H](C(=O)N[C@@H](CC(N)=O)C(=O)N[C@@H](CO)C(=O)N[C@@H](Cc1ccc(O)cc1)C(=O)N[C@@H](CCCNC(=N)N)C(=O)N[C@@H](CCCCN)C(=O)N[C@H](C(=O)N[C@@H](CC(C)C)C(=O)NCC(=O)N[C@@H](CCC(N)=O)C(=O)N[C@@H](CC(C)C)C(=O)N[C@@H](CO)C(=O)N[C@@H](C)C(=O)N[C@@H](CCCNC(=N)N)C(=O)N[C@@H](CCCCN)C(=O)N[C@@H](CC(C)C)C(=O)N[C@@H](CC(C)C)C(=O)N[C@@H](CCC(N)=O)C(=O)N[C@@H](CC(=O)O)C(=O)N[C@H](C(=O)N[C@@H](CCSC)C(=O)N[C@@H](CO)C(=O)N[C@@H](CCCNC(=N)N)C(=O)N[C@@H](CCC(N)=O)C(=O)N[C@@H](CCC(N)=O)C(=O)NCC(=O)N[C@@H](CCC(=O)O)C(=O)N[C@@H](CO)C(=O)N[C@@H](CC(N)=O)C(=O)N[C@@H](CCC(N)=O)C(=O)N[C@@H](CCC(=O)O)C(=O)N[C@@H](CCCNC(=N)N)C(=O)NCC(=O)N[C@@H](C)C(=O)N[C@@H](CCCNC(=N)N)C(=O)N[C@@H](C)C(=O)N[C@@H](CCCNC(=N)N)C(=O)N[C@@H](CC(C)C)C(N)=O)[C@@H](C)CC)C(C)C)[C@@H](C)O)[C@@H](C)CC` [Tesamorelin, trans-3-hexenoyl-GHRH(1-44)-NH2], in series [4], the fasting glucose entry is “did not significantly affect” and the “hemoglobin A1c” value is “did not significantly affect”. Also, in series [5], the “treatment effect for high-dose M (insulin stimulated glucose uptake, high-dose clamp)” value is on record as −0.9 and the “treatment effect for low-dose M (glucose infusion rate, low-dose clamp)” value is 0.0 mg/kg/min. In series [6], this molecule registered an Any adverse event of 29, an Arthralgia of 3, a Hyperglycemia of 12 and an Injection site bruising of 11. In series [6], this molecule returned an Injection site erythema of 3, an Injection site stinging of 4, a Myalgia of 2 and an Other adverse events of 25. Further, in series [6], the Other infection came out at 7, the “Other injection site complaints” value came to 10, the Paresthesia is on record as 2 and the URI was 5. Further, in series [6], the discontinuations for hyperglycemia result is “two” and the “relation of serious adverse events to study drug” value is on record as “None were judged as related to study drug”.

Source of the values: patent US12233107B2, “GHRH or analogues thereof for use in treatment of hepatic disease” (The General Hospital Corporation, priority 2019, dated 2025).
